Measurements from patent US8318780B2 (Intermune, Inc., priority 2009, dated 2012).

Columns and labels:
[1] = system: multiple other CYPs (1A1, 2A6, 2B6, 2C8, 2C9, 2C18, 2C19, 2D6, 2E1, 2J2, 3A4, 3A5, 4A11, and 4F2); assay: In vitro metabolism of pirfenidone by CYP isoforms; assay type: in vitro ADME; conditions: each isoform
Excerpt: There are no unique human metabolites.

CYP1A2 = target: T1, CYP1A2 (Homo sapiens, UniProt P05177); assay: In vitro metabolism of pirfenidone by CYP isoforms; assay type: in vitro ADME
T1 sequence (P05177 1-516): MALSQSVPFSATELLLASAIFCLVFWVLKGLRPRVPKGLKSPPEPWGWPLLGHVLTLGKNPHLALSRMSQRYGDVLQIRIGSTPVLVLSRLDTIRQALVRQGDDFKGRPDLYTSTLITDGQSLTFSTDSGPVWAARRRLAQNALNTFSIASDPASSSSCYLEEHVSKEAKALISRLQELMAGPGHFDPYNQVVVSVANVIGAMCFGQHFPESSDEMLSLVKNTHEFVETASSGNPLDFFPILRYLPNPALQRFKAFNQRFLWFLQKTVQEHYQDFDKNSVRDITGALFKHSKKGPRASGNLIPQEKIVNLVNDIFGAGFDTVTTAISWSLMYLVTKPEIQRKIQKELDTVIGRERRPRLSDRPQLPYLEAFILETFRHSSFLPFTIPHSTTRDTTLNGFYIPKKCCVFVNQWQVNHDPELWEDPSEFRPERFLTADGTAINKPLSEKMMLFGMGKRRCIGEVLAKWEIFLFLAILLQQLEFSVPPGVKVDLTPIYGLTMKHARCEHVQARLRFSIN

[2] = Phase 1 open-label study of the impact of fluvoxamine on the pharmacokinetics of pirfenidone in healthy subjects; conditions: for Ratio of Day 11 AUC0-∞ to Day 1 AUC0-∞, Mean (SD) / Ratio of Day 11 AUC0-∞ to Day 1 AUC0-∞, Median (25th-75th): Day 11 with fluvoxamine vs Day 1 without; for AUC0-∞, Mean (SD) / AUC0-∞, Median (25th-75th): single 801-mg dose of pirfenidone, healthy subjects, n = 51, plasma
Excerpt: Study Design. The study was a Phase 1, open-label, parallel-group study in healthy subjects. Fifty-four subjects were to be enrolled in two groups, consisting of 27 subjects who were smokers (Group 1) and 27 subjects who were nonsmokers (Group 2). […] Each group (smokers and nonsmokers) was to include a minimum of nine females and nine males, and attempts were to be made to enroll equal numbers of each sex in each group.

[3] = Study Day 11: Post-Fluvoxamine (fluvoxamine Days 2-11)

Ratio of Cmax on Day 11 to the Cmax on Day 1, mean (95% CI) ([2]; Day 11 post-fluvoxamine vs Day 1 pre-fluvoxamine, all subjects)	Effect of fluvoxamine co-administration on AUC0-∞ (significance, paired t-test) ([2]; Day 11 vs Day 1)	Ratio of Day 11 AUC0-∞ to Day 1 AUC0-∞, Mean (SD) ([2]; Nonsmokers, N 25)	Ratio of Day 11 AUC0-∞ to Day 1 AUC0-∞, Median (25th-75th) ([2]; Nonsmokers, N 25)	Ratio of Day 11 AUC0-∞ to Day 1 AUC0-∞, Mean (SD) ([2]; Smokers, N 26)	Ratio of Day 11 AUC0-∞ to Day 1 AUC0-∞, Median (25th-75th) ([2]; Smokers, N 26)	AUC0-∞, Mean (SD) ([2]; Study Day 1: Pre-Fluvoxamine)	AUC0-∞, Median (25th-75th) ([2]; Study Day 1: Pre-Fluvoxamine)	AUC0-∞, Mean (SD) [2, 3]	AUC0-∞, Median (25th-75th) [2, 3]	Compound	Share of pirfenidone metabolism by each other CYP [1] [%]	Share of pirfenidone metabolism by CYP1A2 (CYP1A2)
										Cc1ccc(=O)n(-c2ccccc2)c1 [Pirfenidone, 5-methyl-1-phenyl-2-(1H)-pyridone]	< 13	approx 48%
0.369 (0.349-0.390)	not a statistically significant effect	1.05 (0.114)	1.03 (0.978-1.11)	1.12 (0.0951)	1.13 (1.04-1.19)	29.3 (8.22) mg · hr/L	26.9 (22.0-33.7) mg · hr/L	31.7 (8.96) mg · hr/L	29.4 (25.4-36.5) mg · hr/L	O=C(O)c1ccc(=O)n(-c2ccccc2)c1 [5-Carboxy-Pirfenidone, 5 carboxy-pirfenidone]		
